The text below walks through data of patent US20230009145A1, “INHIBITION OF TMEM16A BY BENZBROMARONE OR NICLOSAMIDE FOR TREATING POLYCYSTIC KIDNEY DISEASE AND/OR POLYCYSTIC LIVER DISEASE” (UNIVERSITÄT REGENSBURG, priority 2019, published 2023).

Assay [1] relates to mouse primary renal epithelial and M1 collecting duct cells. Briefly: Measurement of [Ca2+]i (Fura-2). Type of assay: cell-based. The conditions noted are these: for enhanced Ca2+ entry (SOCE) / enhanced CPA-induced store release: PKD1/PKD2 knockout cells; for enhanced Ca2+ entry (SOCE): 5 μM; for enhanced CPA-induced store release: CPA 10 μM, inhibitor 5 μM. How it is done:
Primary cilium and membrane Ca^2+ signals were detected after MDCK M2 and C7 cell were transfected with 5HT6-mCherry-GECO1.0 (5HT6-GECO, Addgene, Cambridge, Mass., USA). Cells were grown to confluence in glass coverslips and serum starved for 4-6 days to induce cilium formation. Afterwards, the cells were mounted and perfused in Ringer's solution. The mCherry fluorescence of the indicator was used to localize the Ca^2+ sensor. Therefore, before each experiment, a photo was taken exciting the 5HT6-GECO at 560 nm, and the emission was recorded between 620±30 nm using a CCD-camera (CoolSnap HQ, Visitron Systems, Germany). To measure the ciliary Ca^2+ changes, 5HT6-GECO was excited at 485/405 nm, and the emission was recorded between 535±12.5 nm. The results for [Ca^2+ ]cilium and [Ca^2+]cyt were obtained at 485/405 nm changes and given in ratio. Measurement of the global cytosolic Ca^2+ changes were performed as described recently. In brief, cells were loaded with 5 μM Fura-2, AM (Molecular Probes) in OptiMEM (Invitogen) with 0.02% pluronic (Molecular Probes) for 1 h at RT and 30 min at 37° C. Fura-2 was excited at 340/380 nm, and the emission was recorded between 470 and 550 nm using a CCD-camera (CoolSnap HQ, Visitron Systems, Germany). Control of experiment, imaging acquisition, and data analysis were done with the software package Meta-Fluor (Universal imaging, USA). [Ca2+]i was calculated from the 340/380 nm fluorescence ratio after background subtraction. The formula used to calculate [Ca^2+]i was [Ca^2+]i=Kd×(R−Rmin)/(Rmax−R)×(Sf2/Sb2), where R is the observed fluorescence ratio. The values Rmax and Rmin (maximum and minimum ratios) and the constant Sf2/Sb2 (fluorescence of free and Ca^2+-bound Fura-2 at 380 nm) were calculated using 1 μmol/liter ionomycin (Calbiochem), 5 μmol/liter nigericin, 10 μmol/liter monensin (Sigma), and 5 mmol/liter EGTA to equilibrate intracellular and extracellular Ca^2+ in intact Fura-2-loaded cells. The dissociation constant for the Fura-2·Ca^2+ complex was taken as 224 nmol/liter. ER Ca^2+ signals were detected in Ca^2+ sensor ER-LAR-GECO1 (Addgene, Cambridge, Mass., USA) expressing M1 cells. Cells were excited at 560 nm and emission was recorded between 620±30 nm.

Assay [2] concerns Polycystin-1-deficient collecting duct (plMDCK) cells. Briefly: plMDCK cyst growth in collagen I matrix. Type of assay: cell-based, dog. The settings on record: 10 μM forskolin, 5 days; for mean cyst volumes: 0.1 μM or 1 μM, vs control. How it is done: Polycystin-1-deficient collecting duct ([…]) cells were resuspended within a collagen I matrix where they spontaneously form cysts and grow in a secretion-dependent manner in the presence of 10 μM forskolin for 5 days. Medium was supplemented with either 0.1 μM or 1 μM niclosamide or 0.1 μM or 1 μM nitazoxanide. Thereafter, cyst volumes were analyzed. […] The effect of niclosamide and derivatives thereof, e.g. nitazoxanide, on cyst growth was analyzed. Particularly, it was analyzed whether there is a dose-dependent effect on cyst growth. Polycystin-1-deficient collecting duct (p1MDCK) cells were resuspended in a collagen I matrix to form cysts in vitro and were cultured in the presence of […] forskolin for 5 days. The cells were treated with either 0.1 μM or 1 μM niclosamide, or with 0.1 μM or 1 μM of an exemplary niclosamide derivative, namely nitazoxanide.

The target of a further assay is T1, TMEM16A (Homo sapiens, UniProt Q5XXA6).
T1 sequence (Q5XXA6 1-986): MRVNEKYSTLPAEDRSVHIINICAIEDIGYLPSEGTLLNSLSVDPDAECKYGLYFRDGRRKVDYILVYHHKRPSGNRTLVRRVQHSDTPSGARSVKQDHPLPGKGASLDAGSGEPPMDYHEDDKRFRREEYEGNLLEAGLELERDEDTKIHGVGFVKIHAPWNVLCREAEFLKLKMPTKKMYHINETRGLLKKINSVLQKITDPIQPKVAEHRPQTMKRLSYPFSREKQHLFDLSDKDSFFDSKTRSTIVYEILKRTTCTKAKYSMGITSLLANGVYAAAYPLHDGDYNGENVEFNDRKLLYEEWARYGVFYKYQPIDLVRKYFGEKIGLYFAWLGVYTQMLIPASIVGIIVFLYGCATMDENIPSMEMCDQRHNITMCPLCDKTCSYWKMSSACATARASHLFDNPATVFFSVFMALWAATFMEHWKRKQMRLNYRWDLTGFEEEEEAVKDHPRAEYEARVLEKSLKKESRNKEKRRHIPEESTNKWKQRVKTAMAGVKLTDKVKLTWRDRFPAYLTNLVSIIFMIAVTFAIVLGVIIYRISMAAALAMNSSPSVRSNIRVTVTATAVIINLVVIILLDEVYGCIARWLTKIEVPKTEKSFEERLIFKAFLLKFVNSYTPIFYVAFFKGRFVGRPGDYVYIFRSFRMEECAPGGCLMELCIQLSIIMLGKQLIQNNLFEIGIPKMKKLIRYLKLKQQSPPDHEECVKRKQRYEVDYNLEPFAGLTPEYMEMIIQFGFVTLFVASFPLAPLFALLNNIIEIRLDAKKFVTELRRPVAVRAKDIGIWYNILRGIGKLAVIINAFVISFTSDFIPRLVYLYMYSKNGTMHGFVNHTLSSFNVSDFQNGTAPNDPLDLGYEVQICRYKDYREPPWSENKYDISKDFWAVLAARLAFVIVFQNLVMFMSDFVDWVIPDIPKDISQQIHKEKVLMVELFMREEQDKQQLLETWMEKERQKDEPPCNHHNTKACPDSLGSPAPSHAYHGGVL
The settings on record: references [1, 2]; cited from earlier work.

Assay [3] relates to M1 collecting duct cells. Briefly: M1 renal organoid / cyst model (organoid/cyst volume in matrigel). Type of assay: cell-based, mouse. The conditions noted are these: for increase in cyst volume upon knockdown of PKD1/PKD2: M1 organoids, shPKD1/shPKD2, 5 μM inhibitor. How it is done: M1 cells were resuspended as a single-cell suspension in 50/50% Matrigel/type I collagen and transferred into 24-well plates (30×10^3 cells/well, four wells per condition) for 9 days. Medium was changed every 3 days. Every 3 days thirty random visual fields per well were photographed with an Axiovert 200 microscope (Zeiss, Germany). Cyst area of the lumina (˜30-150 cysts per condition and single experimental procedure) were measured with AxioVision (Zeiss, Germany). Cyst volume was then estimated using the formula for the volume of a sphere, 4/3πr^3.

For assay [4], the system named is M1 collecting duct cells. The experiment in a line: Ki-67 proliferation staining in M1 organoids/cysts. Type of assay: cell-based, mouse. The conditions noted are these: M1 organoids, shPKD1/shPKD2, 5 μM inhibitor. How it is done: M1 cells grown under confluent conditions for 4 days on glass coverslips and M1 organoids grown for 6 days were fixed for 10 min with methanol at −20° C. Organoids were isolated with ice cold 5 mM EDTA in PBS and seeded in poly-L-lysine coated coverslips. After seeded, cells were fixed for 10 min with methanol at −20° C. After washing, the cells were permeabilized with 0.5% (v/v, PBS) Triton X-100 for 10 min and blocked with 1% (w/v, PBS) bovine serum albumin for 1 h at room temperature. The cells were incubated overnight with primary antibodies (moo) against rabbit anti-TMEM16A (Davids Biotechnologie, Regensburg, Germany), or rat anti-Ki-67 (DAKO, M7249, Germany) or mouse anti-acetylated tubulin (T7451, Sigma-Aldrich, Germany). Binding of the primary antibody was visualized by incubation with appropriate secondary antibodies conjugated with Alexa Fluor 488 or Alexa Fluor 546 (1:300, Molecular Probes, Invitrogen). Nuclei were stained with Hoe33342 ([…] PBS, AppliChem, Darmstadt, Germany). Glass coverslips were mounted on glass slides with fluorescent mounting medium (DakoCytomation, Hamburg, Germany) and examined with an ApoTome Axiovert 200M fluorescence microscope (Zeiss, Germany).

Assay [5] relates to PKD1-/- mice (ADPKD). Briefly: Ki-67 cell proliferation in kidneys of PKD1-/- mice. Type of assay: in vivo, mouse. The conditions noted are these: kidneys of PKD1-/- mice treated with benzbromarone. From the text: Cell proliferation was examined in kidneys of control animals (PKD+/+) and PKD1−/− animals using the proliferation marker Ki-67.
The subject of assay [6] is PKD1-/- mice (ADPKD). Briefly: Inhibition of cyst growth in vivo in PKD1-/- mice. Set-up: species or system mouse. The settings on record: 1 μg/kg/day I.P. for 30 days. How it is done:
Inducible and tubule-specific PKD1 knockout (PKD1−/−) leads to ADPKD and polycystic kidney disease. Wt mice and mice with a knockout in the gene PKD1 were treated with benzbromarone (1 μg/kg/day intraperitoneal (I.P.) benzbromarone (BBR)) for 30 days starting 4 weeks after induction of the PKD1 knockout at postnatal (PN) 20-22.

Entries after “also recorded” stand apart in the source; their conditions may differ.

As to `Cn1c(=O)c2c(ncn2C)n(C)c1=O` [caffeine], the “intracellular Ca2+” value in assay [1] (mouse wt and PKD1-/- primary renal epithelial and M1 collecting duct cells) is “did not increase intracellular Ca^2+”.
`O=C(Nc1ccc([N+](=O)[O-])cc1Cl)c1cc(Cl)ccc1O` [niclosamide, 5-Chlor-N-(2-chlor-4-nitrophenyl)-2-hydroxybenzamid]: in assay [2], the mean cyst volumes result was “inhibit cyst growth in a dose-dependent manner; also recorded: significantly decreased” and the “reduction in cyst volumes, 1 μM compared to 0.1 μM” value is given as “higher reduction in cyst volumes”. For the same compound, the “inhibition of TMEM16A” value on TMEM16A is on record as “potent inhibitor”.
Regarding `CCCCNc1cc(C(=O)O)cc(S(N)(=O)=O)c1Oc1ccccc1` [bumetanide], the “formation of the M1 renal organoid” value with M1 collecting duct cells [3] (M1 organoids without knockdown, bumetanide 100 μM continuously in matrigel) was “did not interfere with the formation of the organoid”. Besides, the “increase in organoid volume upon knockdown of PKD1 or PKD2” value in the assay on M1 collecting duct cells [3] (shPKD1/shPKD2 M1 cells, bumetanide 100 μM, 9 days) is given as “inhibited”.
For `Cc1nnsc1C(=O)Nc1ccc(-n2nc(C(F)(F)F)cc2C(F)(F)F)cc1` [YM58483], in assay [1], the “enhanced Ca2+ entry (SOCE)” value was “inhibited enhanced Ca^2+ entry” and the “enhanced CPA-induced store release” value is “abolished enhanced CPA-induced store release”.
For the compound `CC(C)(C)C1CCc2c(sc(NC(=O)c3ccco3)c2C(=O)O)C1` (stereo not shown) [CaCCinhAO1], the “increase in cyst volume upon knockdown of PKD1/PKD2” value is on record as “blocked increase in volume” with M1 collecting duct cells [3] and “inhibition” with M1 collecting duct cells [3] (listed as CaCCinhA01). The “increase in proliferation (Ki-67) upon knockdown of PKD1/PKD2” value was “blocked increase in volume and proliferation” in the assay with M1 collecting duct cells [4]; “inhibition” in the assay on M1 collecting duct cells [4] (listed as CaCCinhA01).
Consider `CCc1oc2ccccc2c1C(=O)c1cc(Br)c(O)c(Br)c1` [benzbromarone], for which the “pathologic cell proliferation (Ki-67)” value with PKD1-/- mice (ADPKD) [5] is “inhibition of pathologic cell proliferation; also recorded: largely abolished pathologic proliferation”. Further, the “increase in cyst volume upon knockdown of PKD1/PKD2” value in the assay with M1 collecting duct cells [3] was “inhibition”; in the assay on M1 collecting duct cells [3] (listed as Benzbromarone) it was “blocked increase in volume”. The “cyst development / cyst growth” value with PKD1-/- mice (ADPKD) [6] is “remarkable delay in cyst development”; in the assay with PKD1-/- mice (ADPKD) [6] (listed as Benzbromarone) it was “significantly inhibits cyst growth”. The “increase in proliferation (Ki-67) upon knockdown of PKD1/PKD2” value with M1 collecting duct cells [4] is “inhibition”; with M1 collecting duct cells [4] (listed as Benzbromarone), “blocked increase in volume and proliferation”. Besides, the “inhibition of TMEM16A” value on TMEM16A was “potently inhibit”.
Take `CC(=O)Oc1ccccc1C(=O)Nc1ncc([N+](=O)[O-])s1` [nitazoxanide]: in assay [2], the mean cyst volumes entry is recorded as “inhibit cyst growth in a dose-dependent manner; also recorded: significantly decreased” and the “reduction in cyst volumes, 1 μM compared to 0.1 μM” value was “higher reduction in cyst volumes”.
In the case of `N=C(N)NC(=O)c1nc(Cl)c(N)nc1N` [amiloride], the “M1 organoid volume when grown in amiloride” value with M1 collecting duct cells [3] (M1 renal organoids, data not shown) was “increase their volume”.
With `COc1ccc(CCCOC(Cn2ccnc2)c2ccc(OC)cc2)cc1` (stereo not shown) [SK&F96365], in assay [1], the “enhanced Ca2+ entry (SOCE)” value is “inhibited enhanced Ca^2+ entry” and the “enhanced CPA-induced store release” value is recorded as “abolished enhanced CPA-induced store release”.
